Reference: US6407138B1, “Composition and method for preparing electrically neutral amino acid chelates free of interfering ions” (Albion International, Inc., priority 2000, dated 2002)

How the values were obtained:
[1] = Particle size; assay type: physicochemical
Text: The particle size found in Sample 1 and Sample 2 was about 70 mesh.

[2] = Shaking in a plastic bag (electrostatic behaviour of the powder); assay type: physicochemical; conditions: shaken in a plastic bag
Description: A 10:1 mixture of copper bisglycinate to terra alba (CaSO4) [Sample 1] was prepared and shaken together in a plastic bag. Next, a pure copper bisglycinate without the presence of terra alba [Sample 2] was also prepared and shaken in a plastic bag.

[3] = Addition to stimulated gastric solution (stability in acid solution, colour change); assay type: physicochemical; conditions: added to stimulated gastric solution
Description: Finally, Sample 2 was added to a stimulated gastric solution which caused the product to change color. Sample 1 was similarly added to a stimulated gastric solution.

[4] = Rubbing between thumb and finger (hygroscopicity); assay type: physicochemical; conditions: rubbed between thumb and finger; moisture from thumb, finger and surrounding air
Text: Sample 1 was further compared to Sample 2 by rubbing a portion of each between the thumb and finger.

[5] = zero ionic strength; reaction M^2+ + (Gly)^- <-> M(Gly)^+; cited from earlier work

NCC(=O)[O-].NCC(=O)[O-].[Cu+2] [Sample 2, copper bisglycinate]
particle size [1]: about 70 mesh | electrostatic behaviour: product sticking to the walls of the bag [2]: a blue hazei of product stuck the walls of the bag | color change in stimulated gastric solution (stability in acid solution) [3]: change color | hygroscopicity: balling up with moisture [4]: quickly balled up

copper
log of the equilibrium constant [5]: 8.56
